# In paper PMC8459327, “Identification of molecular glues of the SLP76/14-3-3 protein–protein interaction” (RSC Medicinal Chemistry, 2021):
# Entries after “also recorded” stand apart in the source; their conditions may differ. Where two headings read alike, the source gives them in different places.
# How the values were obtained:
# Format in all cases: binding
# 14-3-3γ/SLP76 [1] = biological target: T1, 14-3-3γ/SLP76 (Homo sapiens, UniProt P61981+Q13094); assay: Orthogonal SPR assay, compound flowed with SLP76 over immobilised 14-3-3γ; design: key to SPR RU (%) mass increase 14-3-3γ/SLP76: Ns: no stabilisation observed in SPR; settings: for SPR RU (%) mass increase 14-3-3γ/SLP76: percentage of SLP76 remained on the chip after the dissociation phase (+240 s); for Stabilisation in SPR (in words): off-rate / mass on chip versus runs without compound
# T1 sequence (Q13094 356-533): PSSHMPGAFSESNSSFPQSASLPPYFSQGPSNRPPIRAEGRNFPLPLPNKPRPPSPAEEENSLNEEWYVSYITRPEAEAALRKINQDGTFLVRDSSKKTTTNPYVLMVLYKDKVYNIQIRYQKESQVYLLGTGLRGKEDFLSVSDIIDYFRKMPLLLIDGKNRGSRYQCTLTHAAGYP
# T1 sequence (P61981 whole entry): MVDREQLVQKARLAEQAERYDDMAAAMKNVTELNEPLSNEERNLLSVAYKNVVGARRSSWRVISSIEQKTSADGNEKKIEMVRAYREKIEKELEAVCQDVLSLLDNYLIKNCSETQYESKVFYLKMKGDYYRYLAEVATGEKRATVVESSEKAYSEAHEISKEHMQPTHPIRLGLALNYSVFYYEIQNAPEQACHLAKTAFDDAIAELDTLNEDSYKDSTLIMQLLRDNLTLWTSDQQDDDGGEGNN
# Description: Of the 16 hit compounds 13 were tested in an orthogonal SPR assay in which each compound was flowed with SLP76 over 14-3-3γ immobilised on the chip. Runs at different concentrations of compound were compared to the runs in absence of compound. […] The effect of the compounds on 14-3-3γ/SLP76 was measured by calculating the percentage of SLP76 remained on the chip after the dissociation phase and immediately before: RU (%) = RU 5 s before dissociation/RU +240 s after dissociation. Dose–response curves were extrapolated from those sensorgrams plotting the RU (%) mass increase over the increase in compound concentrations.
# SPR experiments were performed on a Biacore T200 (Cytiva). The Sensor Chip NTA was validated as previously reported by Soini et al.[63] A DMSO tolerance at 2% and 5% was performed in the same way (Fig. S1 ^†).
# For compounds testing, the compounds were preincubated with SLP76, in final DMSO concentration of 5%. The compounds were tested at a single concentration of 100 μM and at multiple concentrations following a 3-fold dilution from a top concentration of 100 μM with SLP76 at the saturation concentration of 250 nM. A second set of experiments were performed at multiple concentrations of compound following a 3-fold dilution from a top concentration of 200 μM with SLP76 around the KD concentration of 40 nM. The SLP76/compound mixtures were flowed over the immobilised 14-3-3γ at 30 μL min^−1 for 180 s before allowing dissociation for 5 minutes. After every cycle, the chip was washed with EDTA and Ni^2+ and 14-3-3γ reinjected for the next cycle. The compound effects were measured by calculating the percentage of SLP76 remained on the chip after the dissociation phase and right before: RU (%) = RU 5 s before dissociation/RU +240 s after dissociation. RU response points relative to +240 s after dissociation were also plotted and an apparent EC50 was estimated. The data were fitted with a “One site – specific” model on GraphPad Prism version 8.1.1 for Windows, GraphPad Software, La Jolla California USA, www.graphpad.com.
# 14-3-3ζ/p27 = 14-3-3ζ/p27 (Homo sapiens, UniProt P46527+P63104); assay: HTRF dose-response assay on 14-3-3ζ/p27; settings: for Selectivity between 14-3-3γ/SLP76 and 14-3-3ζ/p27 (in words): comparison of HTRF dose-responses
# Chain of 14-3-3ζ/p27 (P63104 whole entry): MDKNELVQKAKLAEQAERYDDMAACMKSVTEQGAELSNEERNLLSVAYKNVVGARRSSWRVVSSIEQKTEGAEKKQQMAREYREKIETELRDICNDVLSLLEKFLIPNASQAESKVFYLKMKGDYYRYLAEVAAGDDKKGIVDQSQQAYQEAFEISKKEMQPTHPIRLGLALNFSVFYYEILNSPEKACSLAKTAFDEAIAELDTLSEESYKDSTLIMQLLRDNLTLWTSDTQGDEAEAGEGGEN
# Chain of 14-3-3ζ/p27 (P46527 whole entry): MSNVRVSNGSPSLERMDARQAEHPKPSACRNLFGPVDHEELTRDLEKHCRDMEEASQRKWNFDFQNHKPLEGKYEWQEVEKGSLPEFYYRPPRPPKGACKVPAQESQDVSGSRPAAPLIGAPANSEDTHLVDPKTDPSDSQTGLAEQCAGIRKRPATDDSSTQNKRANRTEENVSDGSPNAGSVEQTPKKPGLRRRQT
# Description: (§1) 384 logistic plates were prefilled with 40 μL of compounds at 10 mM, 100% DMSO in column 3. Columns 1, 2 and 4 to 22 were filled with 20 μL of 100% DMSO with a Multidrop Dispenser (ThermoScientific). 2-Fold dilutions of the compounds were carried over from column 3 to 22, with a CyBio FeliX liquid handler (analytikjena). 2 μL of R18 peptide at 20 μM was added to columns 23 and 24 of the Corning 384-well 3574 final assay plates with a Multidrop Dispenser (ThermoScientific). 40 μL of protein mixture, containing Tb labelled 14-3-3γ at 1 nM and AF647 labelled SLP76 at 600 nM in assay buffer (50 mM Tris pH 7.5, 150 mM NaCl, 5 mM MgCl2, 0.05% v/v Tween-20) were added with a Multidrop Dispenser (ThermoScientific) into the Corning 384-well 3574 final assay plates. 2 μL of compounds along with the DMSO control were then transferred with a CyBio FeliX liquid handler (analytikjena) from the 384 logistic plates to the final Corning 384-well 3574 assay plates. […] The dose–response on the first 64 compounds was performed in singlet from a 500 μM top concentration. The repetition on the best 16 compounds was performed in duplicates from a 250 μM top concentration. A dose–response assay on an unrelated 14-3-3ζ/p27 HTRF protein pair was performed as described above. Incubation, data acquisition and normalisation were performed as described above. For EC50 estimation, the data were fitted with a “log(agonist) vs. response (three parameters)” model on GraphPad Prism version 8.1.1 for Windows, GraphPad Software, La Jolla California USA, www.graphpad.com. In the case of duplicates, each data point is the average of a duplicate measurement, standard deviation is reported as error bars.
# 14-3-3γ/SLP76 [2] = biological target: T1, 14-3-3γ/SLP76; assay: HTRF dose-response assay on 14-3-3γ/SLP76; settings: 14-3-3γ-Tb 1 nM, SLP76-AF647 600 nM, 5% DMSO, EC50 estimated from fit
# Description: 384-Well logistic plates were prefilled with 2 μL of compounds at 2 mM, 100% DMSO, except for columns 1, 2, 23 and 24. Columns 1, 2 were filled with 2 μL of DMSO while columns 23, 24 were filled with 2 μL of the 14-3-3 inhibitor R18 at 20 μM using a Multidrop Dispenser (ThermoScientific). Next, 40 μL of protein mixture containing Tb-labelled 14-3-3γ at 1 nM and AF647 labelled SLP76 at 600 nM in assay buffer (50 mM Tris pH 7.5, 150 mM NaCl, 5 mM MgCl2, 0.05% v/v Tween-20) were added using a Multidrop Dispenser (ThermoScientific). […] To perform the assay, 30 μL volumes were then transferred using a Biomek FX^P Automated Workstation (Beckman Coulter) into Corning 384-well 3574 assay plates. The plates were incubated at room temperature with gentle shaking for 4 h. Finally, the data were collected on a PHERAstar FSX plate reader (BMG Labtech) with an λex 337 nm, λem 665 nm and 620 nm HTRF filter setting. The data were exported in IDBS ActivityBase (IDBS) where they were normalised setting the R18 negative control as 100% inhibition and the DMSO control as 0%. Negative percentage values were therefore associated with a stabilisation of the 14-3-3γ/SLP76 interaction. The threshold of −20% inhibition (or 20% stabilisation) was chosen to select the hits to follow up. The selected hits were retested on 14-3-3γ/SLP76 and were also tested against an unrelated protein pair (IL-17/receptor) in a similar assay setup. […] All the assays were performed as described above.
# as §1
# [3] = stabilisation, same FRET pair, EC50 estimated from fit, read-out: HTRF EC50 14-3-3ζ/p27
# [4] = stabilisation, read-out: HTRF EC50 14-3-3γ/SLP76
smiles,measurement,setting,value
"S=c1[nH]nc(Cn2nnc3ccccc32)o1 [Compound 13, 5-(benzotriazol-1-ylmethyl)-1,3,4-oxadiazole-2-thiol]",SPR RU (%) mass increase 14-3-3γ/SLP76,14-3-3γ/SLP76 [1],Ns ^d
same,EC50,14-3-3ζ/p27; [3],> 250 µM
same,EC50,14-3-3γ/SLP76 [2]; [4],4.9 ± 1.1 µM
"Fc1ccc(OCc2nn3c(Cn4cnc5ccccc54)nnc3s2)cc1 [Compound 8, 3-(benzimidazol-1-ylmethyl)-6-[(4-fluorophenoxy)methyl]-[1,2,4]triazolo[3,4-b][1,3,4]thiadiazole]",Stabilisation in SPR (in words),14-3-3γ/SLP76 [1],orthogonally confirmed by SPR
same,SPR RU (%) mass increase 14-3-3γ/SLP76,14-3-3γ/SLP76 [1],61.2%
same,Selectivity between 14-3-3γ/SLP76 and 14-3-3ζ/p27 (in words),14-3-3ζ/p27,weak and equipotent stabiliser of both the 14-3-3γ/SLP76 and 14-3-3ζ/p27 systems
same,EC50,14-3-3ζ/p27; [3],53.9 ± 17.1 µM
same,EC50,14-3-3γ/SLP76 [2]; [4],69.1 ± 22.6 µM
"O=C1OC[C@@H]2CCN(Cc3ccccc3)Cc3ccccc3N12 [Compound 1, (6S)-9-benzyl-4-oxa-2,9-diazatricyclo[9.4.0.02,6]pentadeca-1(11),12,14-trien-3-one]",Stabilisation in SPR (in words),14-3-3γ/SLP76 [1],orthogonally confirmed and equipotent by SPR
same,SPR RU (%) mass increase 14-3-3γ/SLP76,14-3-3γ/SLP76 [1],66.4%
same,Stabilisation of 14-3-3ζ/p27 in HTRF (in words),14-3-3ζ/p27,no observed stabilisation
same,Selectivity between 14-3-3γ/SLP76 and 14-3-3ζ/p27 (in words),14-3-3ζ/p27,selective for the 14-3-3γ/SLP76 interaction
same,EC50,14-3-3ζ/p27; [3],> 250 µM
same,EC50,14-3-3γ/SLP76 [2]; [4],19.1 ± 7.7 µM
"COc1ccc2c(c1)[C@]1(CC[N+](C)(C)CC(=O)OC(C)(C)C)CCCC[C@@H]1C=C2 [Compound 6, 2-[(4aS,10aR)-6-methoxy-2,3,4,10a-tetrahydro-1H-phenanthren-4a-yl]ethyl-dimethyl-[2-[(2-methylpropan-2-yl)oxy]-2-oxoethyl]azanium]",Stabilisation in SPR (in words),14-3-3γ/SLP76 [1],no observable stabilisation effect
same,SPR RU (%) mass increase 14-3-3γ/SLP76,14-3-3γ/SLP76 [1],Ns ^d
same,EC50,14-3-3ζ/p27,> 250 µM
same,Selectivity between 14-3-3γ/SLP76 and 14-3-3ζ/p27 (in words),14-3-3ζ/p27,selective over 14-3-3ζ/p27
same,EC50,"14-3-3γ/SLP76 [2]; HTRF EC50 14-3-3γ/SLP76, stabilisation",33.5 ± 10.7 µM
"CC1=Nn2c(nnc2-c2ccoc2C)SC1 [Compound 10, 6-methyl-3-(2-methylfuran-3-yl)-7H-[1,2,4]triazolo[3,4-b][1,3,4]thiadiazine]",Stabilisation in SPR (in words),14-3-3γ/SLP76 [1],no observable stabilisation
same,SPR RU (%) mass increase 14-3-3γ/SLP76,14-3-3γ/SLP76 [1],Ns ^d
same,Selectivity between 14-3-3γ/SLP76 and 14-3-3ζ/p27 (in words),14-3-3ζ/p27,modest level of selectivity in stabilising 14-3-3ζ/p27 over 14-3-3γ/SLP76
same,EC50,14-3-3ζ/p27; [3],16.5 ± 10.6 µM
same,EC50,14-3-3γ/SLP76 [2]; [4],70.1 ± 8.7 µM
"O=C(c1ccc(Cl)cc1)n1c(Cn2nnc(-c3cccc4ccccc34)n2)n[nH]c1=S [Compound 16, (4-chlorophenyl)-[3-[(5-naphthalen-1-yltetrazol-2-yl)methyl]-5-sulfanylidene-1H-1,2,4-triazol-4-yl]methanone]",EC50,14-3-3ζ/p27; [3],80.6 ± 53.4 µM
same,EC50,14-3-3γ/SLP76 [2]; [4],1.2 ± 0.7 µM
"COc1ccc(C(=O)N2C[C@@H]3CN(CCO3)C(=O)[C@@H]3C[C@@H](CN3Cc3ccc4c(c3)OCO4)NC(=O)C[C@@H]3O[C@H](C2)[C@@H](O)[C@H]3O)cc1 [Compound 4, (3S,6S,10S,11R,12S,13R,17R)-4-(1,3-benzodioxol-5-ylmethyl)-11,12-dihydroxy-15-(4-methoxybenzoyl)-18,22-dioxa-1,4,7,15-tetrazatetracyclo[15.3.1.13,6.110,13]tricosane-2,8-dione]",Stabilisation in SPR (in words),14-3-3γ/SLP76 [1],orthogonally confirmed by SPR; also recorded: orthogonally confirmed in the SPR assay
same,SPR RU (%) mass increase 14-3-3γ/SLP76,14-3-3γ/SLP76 [1],57.1%
same,Selectivity between 14-3-3γ/SLP76 and 14-3-3ζ/p27 (in words),14-3-3ζ/p27,selective for the 14-3-3γ/SLP76 system
same,EC50,14-3-3ζ/p27; [3],> 250 µM
same,EC50,14-3-3γ/SLP76 [2]; [4],17.4 ± 4.9 µM
"CC1=CCC2COC(C[N+]3(C)CCCCC3)C1C2 (stereo not shown) [Compound 5, 1-methyl-1-[(8-methyl-3-oxabicyclo[3.3.1]non-7-en-2-yl)methyl]piperidin-1-ium]",Stabilisation in SPR (in words),14-3-3γ/SLP76 [1],no observable stabilisation effect
same,SPR RU (%) mass increase 14-3-3γ/SLP76,14-3-3γ/SLP76 [1],Ns ^d
same,Selectivity between 14-3-3γ/SLP76 and 14-3-3ζ/p27 (in words),14-3-3ζ/p27,selective over 14-3-3ζ/p27
same,EC50,14-3-3ζ/p27; [3],> 250 µM
same,EC50,14-3-3γ/SLP76 [2]; [4],71.1 ± 23.9 µM
"COc1ccccc1-c1nnc2scnn12 [Compound 9, 3-(2-methoxyphenyl)-[1,2,4]triazolo[3,4-b][1,3,4]thiadiazole]",Stabilisation in SPR (in words),14-3-3γ/SLP76 [1],orthogonally confirmed by SPR
same,SPR RU (%) mass increase 14-3-3γ/SLP76,14-3-3γ/SLP76 [1],58.7%
same,Selectivity between 14-3-3γ/SLP76 and 14-3-3ζ/p27 (in words),14-3-3ζ/p27,modest level of selectivity in stabilising 14-3-3ζ/p27 over 14-3-3γ/SLP76
same,EC50,14-3-3ζ/p27; [3],5.8 ± 2.2 µM
same,EC50,14-3-3γ/SLP76 [2]; [4],24.5 ± 5.8 µM
"Cc1ccc(-c2ccc3c(n2)C(=N)NC3CCc2ccc(O)cc2)o1 (stereo not shown) [Compound 11, 4-[2-[7-imino-2-(5-methylfuran-2-yl)-5,6-dihydropyrrolo[3,4-b]pyridin-5-yl]ethyl]phenol]",EC50,14-3-3ζ/p27; [3],129 ± 70.5 µM
same,EC50,14-3-3γ/SLP76 [2]; [4],29.7 ± 21.8 µM
"O=C(Cn1nc(C(F)(F)F)c2c1CCCC2)Nc1ccc(Cl)c(Cl)c1 [Compound 14, N-(3,4-dichlorophenyl)-2-[3-(trifluoromethyl)-4,5,6,7-tetrahydroindazol-1-yl]acetamide]",Stabilisation in SPR (in words),14-3-3γ/SLP76 [1],not confirmed in the SPR assay
same,SPR RU (%) mass increase 14-3-3γ/SLP76,14-3-3γ/SLP76 [1],Ns ^d
same,EC50,14-3-3ζ/p27; [3],12.6 ± 14.4 µM
same,EC50,14-3-3γ/SLP76 [2]; [4],21.2 ± 11.3 µM
"CC(C)N1CC[C@H]2COC(=O)N2c2cc(F)ccc2C1 [Compound 2, (6S)-14-fluoro-9-propan-2-yl-4-oxa-2,9-diazatricyclo[9.4.0.02,6]pentadeca-1(15),11,13-trien-3-one]",Stabilisation in SPR (in words),14-3-3γ/SLP76 [1],orthogonally confirmed and equipotent by SPR
same,SPR RU (%) mass increase 14-3-3γ/SLP76,14-3-3γ/SLP76 [1],67.6%
same,Stabilisation of 14-3-3ζ/p27 in HTRF (in words),14-3-3ζ/p27,no observed stabilisation
same,Selectivity between 14-3-3γ/SLP76 and 14-3-3ζ/p27 (in words),14-3-3ζ/p27,selective for the 14-3-3γ/SLP76 interaction
same,EC50,14-3-3ζ/p27; [3],> 250 µM
same,EC50,14-3-3γ/SLP76 [2]; [4],18.6 ± 5.5 µM
"CC(=O)CSc1nc2c(c(=O)[nH]c(=O)n2C)n1Cc1cccc(C)c1 [Compound 15, 3-methyl-7-[(3-methylphenyl)methyl]-8-(2-oxopropylsulfanyl)purine-2,6-dione]",EC50,14-3-3ζ/p27; [3],11.6 ± 6.1 µM
same,EC50,14-3-3γ/SLP76 [2]; [4],17.1 ± 5.2 µM
